{
  "source": "paper PMC9026172",
  "about": "“Pharmacodynamics, Network Pharmacology, and Pharmacokinetics of Chinese Medicine Formula 9002A in the Treatment of Alzheimer’s Disease” (Frontiers in Pharmacology, 2022)",
  "key": {"[1]": {"design": "method as in Naseri-Nosar and Ziora, 2018", "details": "ref Naseri-Nosar and Ziora, 2018, cited from earlier work"}, "[2]": {"test_system": "tight junction proteins (such as claudin-5 and occludin)", "design": "method as in Gibson et al., 2014", "details": "by inhibiting the activation of MMP-9; ref Gibson et al., 2014; cited from earlier work"}, "[3]": {"assay": "Absorbed constituents and pharmacokinetics in rat plasma after Formula 9002A (UPLC-QTof-MS)", "details": "for half-life: SD, rat; for Fold increase of mean residence time after Formula 9002A vs monomer: vs administration of a monomer; for Fold increase of half-life after Formula 9002A vs monomer: vs intragastric or intravenous monomer from literature", "description": "The supernatant were obtained and concentrated, then dissolved with 50% methanol–water at 4°C for LC-MS/MS analysis.\nWaters Xevo G2-XS QTof-MS and Masslynx software were used to acquire LC-MS/MS raw data. Chromatographic separation on the Waters Acquity UPLC HSS T3 column was performed on the samples. The mobile phases consisted of (A) 0.1% formic acid in water and (B) acetonitrile. […] The flow rate was set at 0.3 ml/min. The temperatures of the column and the auto sampler were maintained at 40 and 4°C, respectively. The injection volume was 5 μl.\nMS conditions: positive and negative ion electrospray modes were both used. Capillary voltages were set at 3 kV for the positive mode and 2.5 kV for the negative mode. Source temperature was set as 100 °C. Nitrogen was used as the nebulizer and auxiliary gas; flow rates and temperature of desolvation gas were 1,000 L/h and 400°C, respectively. The range of data acquisition was from 50 to 1,000 m/z, and the scan time was set to 0.2 s. MS^E analysis was performed with 6 eV for the low collision energy scan and 35 eV for the high collision energy scan.\nThe absorbed components were identified by the exact molecular mass, molecular formula, and MS^2 fragment data compared with the standard substances and literature data. The DAS 3.3.0 software was used for calculating the terminal elimination half-life (t1/2) and mean residence time (MRT)."}, "Nrf2 and HO-1": {"test_system": "Nrf2 and HO-1", "design": "method as in Hindam et al., 2014", "details": "streptozotocin-induced cognitive dysfunction; ref Hindam et al., 2014; cited from earlier work"}, "3xTg AD mice": {"test_system": "3xTg AD mice", "design": "method as in Liu et al., 2013", "details": "after 8 months of treatment; ref Liu et al., 2013; cited from earlier work"}, "[4]": {"test_system": "Aβ deposition and glial cell activation in the brain", "design": "method as in Hu et al. (2014)", "details": "transgenic mice; ref Hu et al. (2014); cited from earlier work"}},
  "note": "Read-outs that look alike come from different tables or passages of the source.",
  "data": [
    {"smiles": "OC[C@H]1O[C@@H](OCCc2ccc(O)cc2)[C@H](O)[C@@H](O)[C@@H]1O", "note": "[salidroside]", "values": [
      {"measurement": "half-life", "setting": "[1]; gavage of salidroside monomer", "result": 0.64, "unit": "h"},
      {"measurement": "half-life", "setting": "[1]; intravenous injection of salidroside monomer", "result": 1.16, "unit": "h"},
      {"measurement": "Tight junction proteins / BBB damage", "setting": "[2]", "result": "reversed the decrease in tight junction proteins"},
      {"measurement": "half-life", "setting": "[3]; plasma", "result": 2.12, "unit": "h"},
      {"measurement": "Fold increase of mean residence time after Formula 9002A vs monomer", "setting": "[3]; plasma", "result": "~2", "unit": "fold"},
      {"measurement": "Fold increase of half-life after Formula 9002A vs monomer", "setting": "[3]; plasma", "result": "2- to 3 fold"}
    ]},
    {"smiles": "O=c1ccc2ccc(O)cc2o1", "note": "[umbelliferone]", "values": [
      {"measurement": "Content of Nrf2 and HO-1", "setting": "Nrf2 and HO-1", "result": "significantly increase"}
    ]},
    {"smiles": "NC(=O)c1cccnc1", "note": "[niacinamide]", "values": [
      {"measurement": "Cognitive function", "setting": "3xTg AD mice", "result": "could be improved"}
    ]},
    {"smiles": "OCc1ccc(O[C@@H]2O[C@H](CO)[C@@H](O)[C@H](O)[C@H]2O)cc1", "note": "[gastrodin]", "values": [
      {"measurement": "Aβ deposition and glial cell activation in the brain", "setting": "[4]", "result": "significantly reduce Aβ deposition and glial cell activation"},
      {"measurement": "half-life", "setting": "[3]; in vivo", "result": 2.58, "unit": "h"},
      {"measurement": "Fold increase of mean residence time after Formula 9002A vs monomer", "setting": "[3]; plasma", "result": "~2", "unit": "fold"},
      {"measurement": "Fold increase of half-life after Formula 9002A vs monomer", "setting": "[3]; plasma", "result": "~2", "unit": "fold"}
    ]}
  ]
}
